What was measured:
Format in all cases: in vivo
[1] = system: barnyardgrass (Echinochloa crus-galli); assay: Test B flooded paddy test, plant response rating; details: 250 g ai/ha; Flood; scale of 0 to 100 where 0 is no effect and 100 is complete control; 13 to 15 days
Method in brief: (§1)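 In-water treatment: compound dosed into 3 cm flood over soil, water level unchanged throughout. Controls run alongside; visual assessment at day 13–15.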

rice (Oryza sativa) = assay: Test B flooded paddy test, plant response rating; details: 250 g ai/ha; Flood; scale of 0 to 100 where 0 is no effect and 100 is complete control; 13 to 15 days
Method in brief: as §1

[2] = system: sedge, umbrella (small-flower umbrella sedge, Cyperus difformis); assay: Test B flooded paddy test, plant response rating; details: 250 g ai/ha; Flood; scale of 0 to 100 where 0 is no effect and 100 is complete control; 13 to 15 days
Method in brief: as §1

[3] = system: blackgrass (Alopecurus myosuroides); assay: Test C preemergence, plant response rating; details: Preemergence
Method in brief: (§2)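 Both timings shared one formulation, a non-phytotoxic solvent mixture with surfactant, and a greenhouse period of 13 to 15 d. Preemergence used seeded loam/sand or silt loam soil, postemergence used 2 to 18 cm plants; visual ratings ran from 0 (no effect) to 100 (complete control).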

corn (Zea mays) = assay: Test C preemergence, plant response rating; details: Preemergence
Method in brief: as §2

[4] = system: crabgrass, large (large crabgrass, Digitaria sanguinalis); assay: Test C preemergence, plant response rating; details: Preemergence
Method in brief: as §2

[5] = system: foxtail, giant (giant foxtail, Setaria faberii); assay: Test C preemergence, plant response rating; details: Preemergence
Method in brief: as §2

[6] = system: lambsquarters (Chenopodium album); assay: Test C preemergence, plant response rating; details: Preemergence
Method in brief: as §2

[7] = system: morningglory (Ipomoea coccinea); assay: Test C preemergence, plant response rating; details: Preemergence
Method in brief: as §2

[8] = system: nutsedge, yellow (yellow nutsedge, Cyperus esculentus); assay: Test C preemergence, plant response rating; details: Preemergence
Method in brief: as §2

[9] = system: oilseed rape (Brassica napus); assay: Test C preemergence, plant response rating; details: Preemergence
Method in brief: as §2

[10] = system: ragweed (common ragweed, Ambrosia elatior); assay: Test C preemergence, plant response rating; details: Preemergence
Method in brief: as §2

[11] = system: ryegrass, Italian (Italian ryegrass, Lolium multiflorum); assay: Test C preemergence, plant response rating; details: Preemergence
Method in brief: as §2

soybean (Glycine max) = assay: Test C preemergence, plant response rating; details: Preemergence
Method in brief: as §2

[12] = system: velvetleaf (Abutilon theophrasti); assay: Test C preemergence, plant response rating; details: Preemergence
Method in brief: as §2

[13] = system: waterhemp (common waterhemp, Amaranthus rudis); assay: Test C preemergence, plant response rating; details: Preemergence
Method in brief: as §2

[14] = system: wheat (winter wheat, Triticum aestivum); assay: Test C preemergence, plant response rating; details: Preemergence
Method in brief: as §2

[15] = system: surinam grass (Brachiaria decumbens); assay: Test C preemergence, plant response rating
[16] = system: wild poinsettia (Euphorbia heterophylla); assay: Test C preemergence, plant response rating
[17] = system: oat, wild (wild oat Avena fatua); assay: Test C preemergence, plant response rating

N#Cc1cccc(Oc2ncc(Cl)cn2)c1COCCC(F)(F)F [Compound 80]
25: Plant response rating, Ryegrass, Italian ([11]; 125 g ai/ha, scale of 0 to 100)
30: Plant response rating, Poinsettia, Wild ([16]; 31 g ai/ha, scale 0 to 100) | Plant response rating, Oat, Wild ([17]; 125 g ai/ha, scale of 0 to 100)
35: Plant response rating, Nutsedge, Yellow ([8]; 125 g ai/ha, scale of 0 to 100)
80: Plant response rating, Crabgrass, Large ([4]; 31 g ai/ha, scale 0 to 100) | Plant response rating, Oilseed Rape ([9]; 31 g ai/ha, scale 0 to 100)
95: Plant response rating, Lambsquarters ([6]; 62 g ai/ha, scale 0 to 100)
20: Plant response rating, Corn (corn (Zea mays); 125 g ai/ha, scale of 0 to 100) | Plant response rating, Morningglory ([7]; 31 g ai/ha, scale 0 to 100) | Plant response rating, Ragweed ([10]; 125 g ai/ha, scale of 0 to 100) | Plant response rating, Soybean (soybean (Glycine max); 31 g ai/ha, scale 0 to 100)
15: Plant response rating, Wheat ([14]; 125 g ai/ha, scale of 0 to 100)
70: Plant response rating, Blackgrass ([3]; 62 g ai/ha, scale of 0 to 100) | Plant response rating, Lambsquarters ([6]; 31 g ai/ha, scale 0 to 100) | Plant response rating, Oilseed Rape ([9]; 62 g ai/ha, scale 0 to 100) | Plant response rating, Velvetleaf ([12]; 62 g ai/ha, scale 0 to 100)
90: Plant response rating, Blackgrass ([3]; 125 g ai/ha, scale of 0 to 100)
55: Plant response rating, Rice (rice (Oryza sativa)) | Plant response rating, Crabgrass, Large ([4]; 16 g ai/ha, scale 0 to 100) | Plant response rating, Velvetleaf ([12]; 31 g ai/ha, scale 0 to 100)
98: Plant response rating, Crabgrass, Large ([4]; 125 g ai/ha, scale of 0 to 100) | Plant response rating, Lambsquarters ([6]; 125 g ai/ha, scale of 0 to 100) | Plant response rating, Surinam Grass ([15]; 125 g ai/ha, scale of 0 to 100)
100: Plant response rating, Sedge, Umbrella [2] | Plant response rating, Crabgrass, Large ([4]; 62 g ai/ha, scale of 0 to 100) | Plant response rating, Foxtail, Giant ([5]; 125 g ai/ha, scale of 0 to 100) | Plant response rating, Oilseed Rape ([9]; 125 g ai/ha, scale of 0 to 100) | Plant response rating, Velvetleaf ([12]; 125 g ai/ha, scale of 0 to 100) | Plant response rating, Waterhemp ([13]; 125 g ai/ha, scale of 0 to 100) | Plant response rating, Waterhemp ([13]; 31 g ai/ha, scale 0 to 100) | Plant response rating, Waterhemp ([13]; 62 g ai/ha, scale 0 to 100)
0: Plant response rating, Corn (corn (Zea mays); 16 g ai/ha, scale 0 to 100) | Plant response rating, Nutsedge, Yellow ([8]; 31 g ai/ha, scale 0 to 100) | Plant response rating, Nutsedge, Yellow ([8]; 62 g ai/ha, scale 0 to 100) | Plant response rating, Ragweed ([10]; 31 g ai/ha, scale 0 to 100) | Plant response rating, Ryegrass, Italian ([11]; 31 g ai/ha, scale 0 to 100) | Plant response rating, Wheat ([14]; 31 g ai/ha, scale 0 to 100) | Plant response rating, Wheat ([14]; 62 g ai/ha, scale 0 to 100) | Plant response rating, Oat, Wild ([17]; 31 g ai/ha, scale 0 to 100)
85: Plant response rating, Foxtail, Giant ([5]; 62 g ai/ha, scale of 0 to 100) | Plant response rating, Soybean (soybean (Glycine max); 125 g ai/ha, scale of 0 to 100) | Plant response rating, Poinsettia, Wild ([16]; 125 g ai/ha, scale of 0 to 100)
60: Plant response rating, Surinam Grass ([15]; 62 g ai/ha, scale 0 to 100)
50: Plant response rating, Surinam Grass ([15]; 31 g ai/ha, scale 0 to 100)
75: Plant response rating, Barnyardgrass [1] | Plant response rating, Morningglory ([7]; 125 g ai/ha, scale of 0 to 100)
5: Plant response rating, Blackgrass ([3]; 16 g ai/ha, scale 0 to 100) | Plant response rating, Corn (corn (Zea mays); 62 g ai/ha, scale of 0 to 100) | Plant response rating, Corn (corn (Zea mays); 31 g ai/ha, scale 0 to 100) | Plant response rating, Ragweed ([10]; 62 g ai/ha, scale 0 to 100) | Plant response rating, Ryegrass, Italian ([11]; 62 g ai/ha, scale 0 to 100)
10: Plant response rating, Blackgrass ([3]; 31 g ai/ha, scale 0 to 100) | Plant response rating, Oat, Wild ([17]; 62 g ai/ha, scale 0 to 100)
40: Plant response rating, Foxtail, Giant ([5]; 31 g ai/ha, scale 0 to 100) | Plant response rating, Morningglory ([7]; 62 g ai/ha, scale 0 to 100) | Plant response rating, Soybean (soybean (Glycine max); 62 g ai/ha, scale 0 to 100) | Plant response rating, Poinsettia, Wild ([16]; 62 g ai/ha, scale 0 to 100)

O=C(CCCCC(F)(F)F)c1c(Br)cccc1Oc1ncc(Cl)cn1 [Compound 82]
25: Plant response rating, Surinam Grass ([15]; 62 g ai/ha, scale 0 to 100)
50: Plant response rating, Oilseed Rape ([9]; 125 g ai/ha, scale of 0 to 100) | Plant response rating, Waterhemp ([13]; 31 g ai/ha, scale 0 to 100)
70: Plant response rating, Crabgrass, Large ([4]; 31 g ai/ha, scale 0 to 100) | Plant response rating, Lambsquarters ([6]; 125 g ai/ha, scale of 0 to 100)
60: Plant response rating, Crabgrass, Large ([4]; 16 g ai/ha, scale 0 to 100)
95: Plant response rating, Sedge, Umbrella [2]
0: Plant response rating, Blackgrass ([3]; 16 g ai/ha, scale 0 to 100) | Plant response rating, Blackgrass ([3]; 31 g ai/ha, scale 0 to 100) | Plant response rating, Corn (corn (Zea mays); 16 g ai/ha, scale 0 to 100) | Plant response rating, Corn (corn (Zea mays); 31 g ai/ha, scale 0 to 100) | Plant response rating, Corn (corn (Zea mays); 62 g ai/ha, scale 0 to 100) | Plant response rating, Morningglory ([7]; 31 g ai/ha, scale 0 to 100) | Plant response rating, Morningglory ([7]; 62 g ai/ha, scale 0 to 100) | Plant response rating, Nutsedge, Yellow ([8]; 125 g ai/ha, scale of 0 to 100) | Plant response rating, Nutsedge, Yellow ([8]; 31 g ai/ha, scale 0 to 100) | Plant response rating, Nutsedge, Yellow ([8]; 62 g ai/ha, scale 0 to 100) | Plant response rating, Oilseed Rape ([9]; 31 g ai/ha, scale 0 to 100) | Plant response rating, Ragweed ([10]; 31 g ai/ha, scale 0 to 100) | Plant response rating, Ryegrass, Italian ([11]; 31 g ai/ha, scale 0 to 100) | Plant response rating, Soybean (soybean (Glycine max); 125 g ai/ha, scale of 0 to 100) | Plant response rating, Soybean (soybean (Glycine max); 31 g ai/ha, scale 0 to 100) | Plant response rating, Soybean (soybean (Glycine max); 62 g ai/ha, scale 0 to 100) | Plant response rating, Velvetleaf ([12]; 31 g ai/ha, scale 0 to 100) | Plant response rating, Velvetleaf ([12]; 62 g ai/ha, scale 0 to 100) | Plant response rating, Wheat ([14]; 125 g ai/ha, scale of 0 to 100) | Plant response rating, Wheat ([14]; 31 g ai/ha, scale 0 to 100) | Plant response rating, Wheat ([14]; 62 g ai/ha, scale 0 to 100) | Plant response rating, Poinsettia, Wild ([16]; 31 g ai/ha, scale 0 to 100) | Plant response rating, Poinsettia, Wild ([16]; 62 g ai/ha, scale 0 to 100) | Plant response rating, Oat, Wild ([17]; 31 g ai/ha, scale 0 to 100)
100: Plant response rating, Waterhemp ([13]; 125 g ai/ha, scale of 0 to 100) | Plant response rating, Waterhemp ([13]; 62 g ai/ha, scale 0 to 100)
20: Plant response rating, Lambsquarters ([6]; 31 g ai/ha, scale 0 to 100) | Plant response rating, Lambsquarters ([6]; 62 g ai/ha, scale 0 to 100) | Plant response rating, Ragweed ([10]; 62 g ai/ha, scale 0 to 100) | Plant response rating, Poinsettia, Wild ([16]; 125 g ai/ha, scale of 0 to 100)
30: Plant response rating, Rice (rice (Oryza sativa)) | Plant response rating, Ragweed ([10]; 125 g ai/ha, scale of 0 to 100)
10: Plant response rating, Morningglory ([7]; 125 g ai/ha, scale of 0 to 100) | Plant response rating, Velvetleaf ([12]; 125 g ai/ha, scale of 0 to 100) | Plant response rating, Surinam Grass ([15]; 31 g ai/ha, scale 0 to 100)
80: Plant response rating, Foxtail, Giant ([5]; 31 g ai/ha, scale 0 to 100)
35: Plant response rating, Barnyardgrass [1] | Plant response rating, Surinam Grass ([15]; 125 g ai/ha, scale of 0 to 100)
98: Plant response rating, Crabgrass, Large ([4]; 125 g ai/ha, scale of 0 to 100) | Plant response rating, Foxtail, Giant ([5]; 125 g ai/ha, scale of 0 to 100)
5: Plant response rating, Blackgrass ([3]; 125 g ai/ha, scale of 0 to 100) | Plant response rating, Blackgrass ([3]; 62 g ai/ha, scale 0 to 100) | Plant response rating, Corn (corn (Zea mays); 125 g ai/ha, scale of 0 to 100) | Plant response rating, Oilseed Rape ([9]; 62 g ai/ha, scale 0 to 100) | Plant response rating, Ryegrass, Italian ([11]; 125 g ai/ha, scale of 0 to 100) | Plant response rating, Ryegrass, Italian ([11]; 62 g ai/ha, scale 0 to 100) | Plant response rating, Oat, Wild ([17]; 62 g ai/ha, scale 0 to 100) | Plant response rating, Oat, Wild ([17]; 125 g ai/ha, scale of 0 to 100)
90: Plant response rating, Crabgrass, Large ([4]; 62 g ai/ha, scale 0 to 100) | Plant response rating, Foxtail, Giant ([5]; 62 g ai/ha, scale 0 to 100)

Source: patent US11053204B2, “Pyrimidinyloxy benzene derivatives as herbicides” (FMC Corporation, priority 2015, dated 2021)
